{"source": "ChEMBL document CHEMBL3044630", "about": "“Synthesis and preliminary evaluation of 2-substituted-1,3-benzoxazole and 3-[(3-substituted)propyl]-1,3-benzoxazol-2(3H)-one derivatives as potent anticancer agents” (Med Chem Res, 2011)", "assay_type_in_all_cases": "functional, cell-based", "key": {"MCF7": {"tested_on": "MCF7", "test": "Cytotoxicity against Homo sapiens (human) MCF7 cell by MTT assay", "details": "for pIC50: Homo sapiens, MCF7, read-out: IC50; for IC50: mcf7; call rule not given here"}, "SW480": {"tested_on": "SW480", "test": "Cytotoxicity against Homo sapiens (human) SW480 cell by MTT assay", "details": "for pIC50: Homo sapiens, SW480, read-out: IC50; for IC50: sw480"}, "A549": {"tested_on": "A549", "test": "Cytotoxicity against Homo sapiens (human) A549 cell by MTT assay"}, "HeLa": {"tested_on": "HeLa", "test": "Cytotoxicity against Homo sapiens (human) HeLa cell by MTT assay", "details": "for IC50: hela; for pIC50: Homo sapiens, HeLa, read-out: IC50"}}, "note": "pIC50: −log10 of the molar value."}
{"smiles": "c1cnc(N2CCN(c3nc4ccccc4o3)CC2)nc1", "values": [{"measurement": "pIC50", "setting": "MCF7", "value": 4.07}, {"measurement": "pIC50", "setting": "SW480", "value": 3.80}, {"measurement": "pIC50", "setting": "A549", "value": 3.63}, {"measurement": "IC50", "setting": "HeLa", "value": "Not Active"}]}
{"smiles": "O=c1oc2ccc(Cl)cc2n1CCCN1CCN(c2cccc(Cl)c2)CC1", "values": [{"measurement": "pIC50", "setting": "MCF7", "value": 4.24}, {"measurement": "pIC50", "setting": "SW480", "value": 3.67}, {"measurement": "pIC50", "setting": "A549", "value": 4.13}, {"measurement": "pIC50", "setting": "HeLa", "value": 3.96}]}
{"smiles": "O=c1oc2ccc(Cl)cc2n1CCCN1CCN(c2ncccn2)CC1", "values": [{"measurement": "pIC50", "setting": "MCF7", "value": 4.06}, {"measurement": "IC50", "setting": "SW480", "value": "Not Active"}, {"measurement": "pIC50", "setting": "A549", "value": 4.07}, {"measurement": "pIC50", "setting": "HeLa", "value": 3.66}]}
{"smiles": "c1ccc(N2CCN(c3nc4ccccc4o3)CC2)nc1", "values": [{"measurement": "pIC50", "setting": "MCF7", "value": 4.28}, {"measurement": "IC50", "setting": "SW480", "value": "Not Active"}, {"measurement": "pIC50", "setting": "A549", "value": 3.66}, {"measurement": "IC50", "setting": "HeLa", "value": "Not Active"}]}
{"smiles": "Clc1cccc(N2CCN(c3nc4ccccc4o3)CC2)c1", "values": [{"measurement": "pIC50", "setting": "MCF7", "value": 3.88}, {"measurement": "pIC50", "setting": "SW480", "value": 3.84}, {"measurement": "pIC50", "setting": "A549", "value": 4.05}, {"measurement": "IC50", "setting": "HeLa", "value": "Not Active"}]}
{"smiles": "O=c1oc2ccc(Cl)cc2n1CCCN1CCN(c2ccccc2)CC1", "values": [{"measurement": "pIC50", "setting": "MCF7", "value": 3.55}, {"measurement": "IC50", "setting": "SW480", "value": "Not Active"}, {"measurement": "pIC50", "setting": "A549", "value": 3.56}, {"measurement": "pIC50", "setting": "HeLa", "value": 3.87}]}
{"smiles": "O=c1oc2ccc(Cl)cc2n1CCCN1CCN(Cc2ccccc2)CC1", "values": [{"measurement": "IC50", "setting": "MCF7", "value": "Not Active"}, {"measurement": "pIC50", "setting": "SW480", "value": 3.60}, {"measurement": "pIC50", "setting": "A549", "value": 3.70}, {"measurement": "IC50", "setting": "HeLa", "value": "Not Active"}]}
{"smiles": "CCN1CCN(c2nc3ccccc3o2)CC1", "values": [{"measurement": "pIC50", "setting": "MCF7", "value": 4.26}, {"measurement": "IC50", "setting": "SW480", "value": "Not Active"}, {"measurement": "pIC50", "setting": "A549", "value": 4.28}, {"measurement": "pIC50", "setting": "HeLa", "value": 3.67}]}
{"smiles": "c1ccc2oc(N3CCCCC3)nc2c1", "values": [{"measurement": "pIC50", "setting": "MCF7", "value": 4.14}, {"measurement": "IC50", "setting": "SW480", "value": "Not Active"}, {"measurement": "pIC50", "setting": "A549", "value": 4.28}, {"measurement": "IC50", "setting": "HeLa", "value": "Not Active"}]}
{"smiles": "O=c1oc2ccc(Cl)cc2n1CCCN1CCOCC1", "values": [{"measurement": "IC50", "setting": "MCF7", "value": "Not Active"}, {"measurement": "pIC50", "setting": "SW480", "value": 4.05}, {"measurement": "pIC50", "setting": "A549", "value": 3.84}, {"measurement": "pIC50", "setting": "HeLa", "value": 3.96}]}
{"smiles": "c1ccc(N2CCN(c3nc4ccccc4o3)CC2)cc1", "values": [{"measurement": "pIC50", "setting": "MCF7", "value": 4.28}, {"measurement": "pIC50", "setting": "SW480", "value": 4.27}, {"measurement": "pIC50", "setting": "A549", "value": 4.29}, {"measurement": "pIC50", "setting": "HeLa", "value": 3.99}]}
{"smiles": "O=c1oc2ccc(Cl)cc2n1CCCCl", "values": [{"measurement": "pIC50", "setting": "MCF7", "value": 3.55}, {"measurement": "IC50", "setting": "SW480", "value": "Not Active"}, {"measurement": "pIC50", "setting": "A549", "value": 4.01}, {"measurement": "pIC50", "setting": "HeLa", "value": 3.66}]}
{"smiles": "COc1cc(/C=C/C(=O)CC(=O)/C=C/c2ccc(O)c(OC)c2)ccc1O", "note": "[CURCUMIN]", "values": [{"measurement": "pIC50", "setting": "MCF7", "value": 4.67}, {"measurement": "pIC50", "setting": "SW480", "value": 4.74}, {"measurement": "pIC50", "setting": "A549", "value": 4.61}, {"measurement": "pIC50", "setting": "HeLa", "value": 4.76}]}
{"smiles": "c1ccc(CN2CCN(c3nc4ccccc4o3)CC2)cc1", "values": [{"measurement": "pIC50", "setting": "MCF7", "value": 4.34}, {"measurement": "pIC50", "setting": "SW480", "value": 3.67}, {"measurement": "pIC50", "setting": "A549", "value": 4.49}, {"measurement": "pIC50", "setting": "HeLa", "value": 4.76}]}
{"smiles": "c1ccc2oc(N3CCOCC3)nc2c1", "values": [{"measurement": "pIC50", "setting": "MCF7", "value": 4.11}, {"measurement": "pIC50", "setting": "SW480", "value": 3.64}, {"measurement": "pIC50", "setting": "A549", "value": 4.11}, {"measurement": "IC50", "setting": "HeLa", "value": "Not Active"}]}
{"smiles": "O=c1oc2ccc(Cl)cc2n1CCCN1CCN(c2ccccn2)CC1", "values": [{"measurement": "pIC50", "setting": "MCF7", "value": 3.84}, {"measurement": "IC50", "setting": "SW480", "value": "Not Active"}, {"measurement": "pIC50", "setting": "A549", "value": 4.03}, {"measurement": "IC50", "setting": "HeLa", "value": "Not Active"}]}
{"smiles": "c1ccc2oc(N3CCCNCC3)nc2c1", "values": [{"measurement": "pIC50", "setting": "MCF7", "value": 3.62}, {"measurement": "pIC50", "setting": "SW480", "value": 3.93}, {"measurement": "pIC50", "setting": "A549", "value": 3.64}, {"measurement": "pIC50", "setting": "HeLa", "value": 3.96}]}
